Consider two molecules from paper PMC11728707, “Chemical Composition and Assessment of the Anti-Inflammatory, Antioxidant, Cytotoxic and Skin Enzyme Inhibitory Activities of Citrus sinensis (L.) Osbeck Essential Oil and Its Major Compound Limonene” (Pharmaceuticals, 2024).

In the experiment the target is T1, tyrosinase.
T1 construct: gene PPO3
Description: spectrophotometric L-DOPA oxidation assay, […] nm. In kind it is biochemical. The conditions noted are these: 5 mM L-DOPA, 50 mM phosphate pH 6.5, 37 °C.

Structures are written as SMILES.

`O=c1c(O)c(-c2ccc(O)c(O)c2)oc2cc(O)cc(O)c12` [Quercetin] returned a Tyrosinase of 111.03 ± 0.1 µg/mL.
Molecule `C=C(C)[C@H]1CC=C(C)CC1` [Limonene] showed a Tyrosinase of 86.07 ± 1.53 µg/mL.
